Biological target: T1, wild-type HIV-1 protease (Human immunodeficiency virus type 1 group M subtype B, UniProt P04585)
T1 construct: Escherichia coli expressed wild-type HIV-1 protease protein
Assay: Assay for Inhibition of Microbial Expressed HIV Protease (peptide substrate cleavage, LC-MS/MS readout)
Format: biochemical
Conditions: E. coli expressed wild-type HIV-1 protease, mean of at least two independent experiments, read-out: HIV Pr Enzyme HIV1 PR IC50
Description: Assay for Inhibition of Microbial Expressed HIV Protease
Inhibition of Escherichia coli expressed wild-type HIV-1 protease protein was carried out with a peptide substrate [Val-Ser-Gln-Asn-(βnaphtyl)Ala-Pro-Ile-Val]. The inhibitor compound was preincubated with HIV-1 protease enzyme in assay buffer (50 mM sodium acetate, pH 5.5, 100 mM NaCl, and 0.1% BSA) for 30 minutes at room temperature. Peptide substrate was added to 400 μM in a total volume of 20 μL containing […] HIV-1 protease (final) after which the reaction was incubated for 1 hour at 30° C. […] The extent of inhibition of the reaction was determined from the peak area of the products.
Data shown in the table reflects the mean of at least two independent experiments.

| Structure (SMILES) | IC50 [nM] |
| --- | --- |
| CN1CCN(c2cncc(-c3ncc4c(n3)CN(C(=O)c3cc(CN5C(=N)N[C@](CCCC(F)(F)F)(c6ccc(F)cc6)C5=O)ccc3C(F)(F)F)C4)c2)CC1 [Compound 25, (5R)-5-(4-fluorophenyl)-2-imino-3-[3-({2-[5-(4-methylpiperazin-1-yl)pyridin-3-yl]-5,7-dihydro-6H-pyirolo[3,4-d]pyrimidin-6-yl}carbonyl)-4-(trifluoromethyl)benzyl]-5-(4,4,4-trifluorobutyl)imidazolidin-4-one] | 2.59 |
| N=C1NC(CCC2CC2)(c2cccc(F)c2)C(=O)N1Cc1ccc(C(F)(F)F)c(C(=O)N2Cc3nccnc3C2)c1 (centres unmarked) [Compound 26, 5-(2-cyclopropylethyl)-3-[3-(5,7-dihydro-6H-pyrrolo[3,4-b]pyrazin-6-ylcarbonyl)-4-(trifluoromethyl)benzyl]-5-(3-fluorophenyl)-2-iminoimidazolidin-4-one] | 2.85 |
| Cc1n[nH]cc1-c1ncc2c(n1)CN(C(=O)c1cc(CN3C(=N)N[C@](CCCC(F)(F)F)(c4ccc(F)cc4)C3=O)ccc1C(F)(F)F)C2 [Compound 27, (5R)-5-(4-fluorophenyl)-2-imino-3-[3-{[2-(3-methyl-1H-pyrazol-4-yl)-5,7-dihydro-6H-pyrrolo[3,4-d]pyrimidin-6-yl]carbonyl}-4-(trifluoromethyl)benzyl]-5-(4,4,4-trifluorobutyl)imidazolidin-4-one] | 2.88 |
| N=C1N[C@](CCCC(F)(F)F)(c2ccc(F)cc2)C(=O)N1Cc1ccc(C(F)(F)F)c(C(=O)N2Cc3cnc(-c4cnn5c4CCCC5)nc3C2)c1 [Compound 28, (5R)-5-(4-fluorophenyl)-2-imino-3-[3-{[2-(4,5,6,7-tetrahydropyrazolo-[1,5-a]pyridin-3-yl)-5,7-dihydro-6H-pyrrolo[3,4-d]pyrimidin-6-yl]carbonyl}-4-(trifluoromethyl)-benzyl]-5-(4,4,4-trifluorobutyl)imidazolidin-4-one] | 3.04 |
| CC(C)CC(c1ccc(C(F)(F)F)c(C(=O)N2CCn3c(nnc3C(F)(F)F)C2)c1)N1C(=N)N[C@@](C[C@@H]2CCOC2)(c2ccc(F)cc2)C1=O (stereo partly drawn) [Compound 29, (5S)-5-(4-fluorophenyl)-2-imino-3-{3-methyl-1-[4-(trifluoromethyl)-3-{[3-(trifluoromethyl)-5,6-dihydro-[1,2,4]triazolo[4,3-a]pyrazin-7(8H)-yl]carbonyl}phenyl]butyl}-5-[(3R)-tetrahydrofuran-3-ylmethyl]-imidazolidin-4-one] | 3.07 |
| CC(C)CC[C@]1(c2ccccc2)NC(=N)N(Cc2ccc(C(F)(F)F)c(C(=O)N3Cc4nccnc4C3)c2)C1=O [Compound 30, (5R)-3-[3-(5,7-dihydro-6H-pyrrolo[3,4-b]pyrazin-6-ylcarbonyl)-4-(trifluoromethyl)-benzyl]-2-iirrino-5-(3-methylbutyl)-5-phenylimidazolidin-4-one] | 3.08 |
| CC(C)CC[C@]1(c2ccccc2)NC(=N)N(C(CC(C)C)c2ccc(C(F)(F)F)c(C(=O)N3Cc4nccnc4C3)c2)C1=O (stereo partly drawn) [Compound 31, (5R)-3-{1-[3-(5,7-dihydro-6H-pyrrolo[3,4-b]pyrazin-6-ylcarbonyl)-4-(trifluoromethyl)-phenyl]-3-methylbutyl}-2-imino-5-(3-methylbutyl)-5-phenylimidazolidin-4-one] | 3.13 |
| N=C1N[C@](CCCC(F)(F)F)(c2ccc(F)cc2)C(=O)N1Cc1ccc(C(F)(F)F)c(C(=O)N2Cc3cnc(-c4ccc5ncnn5c4)nc3C2)c1 [Compound 32, (5R)-5-(4-fluorophenyl)-2-imino-3-{3-[(2-[1,2,4]triazolo[1,5-a]pyridin-6-yl-5,7-dihydro-6H-pyrrolo[3,4-d]pyrimidin-6-yl)carbonyl]-4-(trifluoromethyl)benzyl}-5-(4,4,4-trifluorobutyl)imidazolidin-4-one] | 3.21 |
| N=C1N[C@](CCCC(F)(F)F)(c2ccc(F)cc2)C(=O)N1Cc1ccc(C(F)(F)F)c(C(=O)N2Cc3cnc(-c4cnn(CCN5CCOCC5)c4)nc3C2)c1 [Compound 33, (5R)-5-(4-fluorophenyl)-2-imino-3-[3-({2-[1-(2-morpholin-4-ylethyl)-1H-pyrazol-4-yl]-5,7-dihydro-6H-pyrrolo[3,4-d]pyrimidin-6-yl}carbonyl)-4-(trifluoromethyl)-benzyl]-5-(4,4,4-trifluorobutyl)-imidazolidin-4-one] | 3.26 |
| N=C1N[C@](CCCC(F)(F)F)(c2ccc(F)cc2)C(=O)N1Cc1ccc(C(F)(F)F)c(C(=O)N2Cc3cnc(-c4cnn5c4CCC5)nc3C2)c1 [Compound 34, (5R)-3-[3-{[2-(5,6-dihydro-4H-pyrrolo[1,2-b]pyrazol-3-yl)-5,7-dihydro-6H-pyrrolo[3,4-d]pyrimidin-6-yl]carbonyl}-4-(trifluoromethyl)benzyl]-5-(4-fluorophenyl)-2-imino-5-(4,4,4-trifluorobutyl)imidazolidin-4-one] | 3.36 |
| N=C1N[C@](CCCC(F)(F)F)(c2ccc(F)cc2)C(=O)N1Cc1ccc(C(F)(F)F)c(C(=O)N2Cc3cnc(Cl)nc3C2)c1 [Compound 35, (5R)-3-{3-[(2-chloro-5,7-dihydro-6H-pyrrolo[3,4-d]pyrimidin-6-yl)carbonyl]-4-(trifluoromethyl)-benzyl}-5-(4-fluorophenyl)-2-imino-5-(4,4,4-trifluorobutyl)-imidazolidin-4-one] | 3.42 |
| N=C1N[C@](CCCC(F)(F)F)(c2ccc(F)cc2)C(=O)N1Cc1ccc(C(F)(F)F)c(C(=O)N2Cc3cnc(N[C@@H]4CCOC4)nc3C2)c1 [Compound 36, (5R)-5-(4-fluorophenyl)-2-imino-3-[3-({2-[(3R)-tetrahydrofuran-3-ylamino]-5,7-dihydro-6H-pyrrolo[3,4-d]pyrimidin-6-yl}carbonyl)-4-(trifluoromethyl)-benzyl]-5-(4,4,4-trifluorobutyl)-imidazolidin-4-one] | 3.51 |
| N=C1N[C@](CCC2CC2)(c2ccc(F)cc2)C(=O)N1C(CCc1ccccc1)c1ccc(C(F)(F)F)c(C(=O)N2CCn3c(nnc3C(F)(F)F)C2)c1 (stereo partly drawn) [Compound 37, (5R)-5-(2-cyclopropylethyl)-5-(4-fluorophenyl)-2-imino-3-{3-phenyl-1-[4-(trifluoromethyl)-3-{[3-(trifluoromethyl)-5,6-dihydro-[1,2,4]triazolo[4,3-a]pyrazin-7(8H)-yl]carbonyl}phenyl]propyl} imidazolidin-4-one] | 3.89 |
| CC(C)OCC(c1ccc(C(F)(F)F)c(C(=O)N2Cc3nccnc3C2)c1)N1C(=N)N[C@](CCC2CC2)(c2ccc(F)cc2)C1=O (stereo partly drawn) [Compound 38, (5R)-5-(2-cyclopropylethyl)-3-{1-[3-(5,7-dihydro-6H-pyrrolo[3,4-b]pyrazin-6-ylcarbonyl)-4-(trifluoromethyl)phenyl]-2-(1-methylethoxy)ethyl}-5-(4-fluorophenyl)-2-iminoimidazolidin-4-one] | 4.03 |
| N=C1N[C@](CCCC(F)(F)F)(c2ccc(F)cc2)C(=O)N1Cc1ccc(C(F)(F)F)c(C(=O)N2Cc3cnc(-c4cnc5[nH]ccc5c4)nc3C2)c1 [Compound 39, (5R)-5-(4-fluorophenyl)-2-imino-3-[3-{[2-(1H-pyrrolo[2,3-b]pyridin-5-yl)-5,7-dihydro-6H-pyrrolo[3,4-d]pyrimidin-6-yl]carbonyl}-4-(trifluoromethyl)benzyl]-5-(4,4,4-trifluorobutyl)imidazolidin-4-one] | 4.1 |
| N=C1N[C@](CCCC(F)(F)F)(c2ccc(F)cc2)C(=O)N1Cc1ccc(C(F)(F)F)c(C(=O)N2Cc3cnc(-c4cccc(-c5ccn[nH]5)c4)nc3C2)c1 [Compound 40, (5R)-5-(4-fluorophenyl)-2-imino-3-[3-({2-[3-(1H-pyrazol-5-yl)phenyl]-5,7-dihydro-6H-pyrrolo[3,4-d]pyrimidin-6-yl}carbonyl)-4-(trifluoromethyl)benzyl]-5-(4,4,4-trifluorobutyl)imidazolidin-4-one] | 4.13 |
| Cn1ccc2c(-c3ncc4c(n3)CN(C(=O)c3cc(CN5C(=N)N[C@](CCCC(F)(F)F)(c6ccc(F)cc6)C5=O)ccc3C(F)(F)F)C4)cccc21 [Compound 41, (5R)-5-(4-fluorophenyl)-2-imino-3-[3-{[2-(1-methyl-1H-indol-4-yl)-5,7-dihydro-6H-pyrrolo[3,4-d]pyrimidin-6-yl]carbonyl}-4-(trifluoromethyl)benzyl]-5-(4,4,4-trifluorobutyl)imidazolidin-4-one] | 4.23 |
| CC(C)CC(c1ccc(C(F)(F)F)c(C(=O)N2CCn3c(nnc3C(F)(F)F)C2)c1)N1C(=N)N[C@](C[C@@H]2CCOC2)(c2ccc(F)cc2)C1=O (stereo partly drawn) [Compound 42, (5R)-5-(4-fluorophenyl)-2-imino-3-{3-methyl-1-[4-(trifluoromethyl)-3-{[3-(trifluoromethyl)-5,6-dihydro-[1,2,4]triazolo[4,3-a]pyrazin-7(8H)-yl]carbonyl}phenyl]butyl}-5-[(3R)-tetrahydrofuran-3-ylmethyl]-imidazolidin-4-one] | 4.26 |
| Cn1ncc2cc(-c3ncc4c(n3)CN(C(=O)c3cc(CN5C(=N)N[C@](CCCC(F)(F)F)(c6ccc(F)cc6)C5=O)ccc3C(F)(F)F)C4)ccc21 [Compound 43, (5R)-5-(4-fluorophenyl)-2-imino-3-[3-{[2-(1-methyl-1H-indazol-5-yl)-5,7-dihydro-6H-pyrrolo[3,4-d]pyrimidin-6-yl]carbonyl}-4-(trifluoromethyl)benzyl]-5-(4,4,4-trifluorobutyl)imidazolidin-4-one] | 4.47 |
| CS(=O)(=O)Nc1cccc(-c2ncc3c(n2)CN(C(=O)c2cc(CN4C(=N)N[C@](CCCC(F)(F)F)(c5ccc(F)cc5)C4=O)ccc2C(F)(F)F)C3)c1 [Compound 44, N-[3-(6-{[5-{[(4R)-4-(4-fluorophenyl)-2-imino-5-oxo-4-(4,4,4-trifluorobutyl)imidazolidin-1-yl]methyl}-2-(trifluoromethyl)-phenyl]carbonyl}-6,7-dihydro-5H-pyrrolo[3,4-d]pyrimidin-2-yl)phenyl]methanesulfonamide] | 4.55 |

From US20200069691A1, “HETEROCYCLIC COMPOUNDS AS HIV PROTEASE INHIBITORS” (Merck Sharp & Dohme Corp., priority 2016, published 2020)
